Patent US20100105636A1, “T-TYPE CALCIUM CHANNEL BLOCKER” (Nissan Chemical Industries, Ltd., priority 2003, published 2010)

Tests used:
Format in all cases: cell-based
T-type Ca channel (α1G) [1] = target: T1, T-type Ca channel (α1G) (Homo sapiens, UniProt O43497); assay: Effect on T-type Ca channel expressed in BHK cells (whole cell patch clamp), Pharmacological Test Example 1; settings: BHK cells expressing T-type Ca channel (α1G), depolarization pulse −20 mV from −80 mV, 5 minutes after application, average value vs vehicle control (100%), read-out: Inhibition (%) of Ca current
T1 construct: expressed in transfected cells; host or cells: BHK (baby hamster kidney) cells
Method: Effect on T-Type Ca Channel Expressed in Mammalian Cells (BHK Cells)
(§1) An electrophysiological evaluation was carried out by use of BHK (baby hamster kidney) cells in which T-type Ca channel (α1G) was expressed according to the method of Wakamori M et al. (Wakamori M et al.: J Biol Chem 273, 34857-34867, 1998) based on the whole cell patch clamp method. Each Ca-ion current was measured through a patch clamp amplifier as an inward current when depolarization pulse (−20 mV) was applied to cells maintained at a membrane potential of −80 mV. Each compound was dissolved in extracellular solution and applied with perfusion. At 5 minutes after the application, any variation in Ca-ion current was measured. The results are shown in Table 1 as Ca current inhibition (%, average value) of the compound of the present invention to Ca current (100%) in vehicle control.

L-type Ca channel = assay: Effect on L-type Ca channel expressed in BHK cells (whole cell patch clamp), Pharmacological Test Example 2; settings: 10 μM; BHK cells expressing L-type Ca channel; depolarization pulse 10 mV from −80 mV; 5 minutes after application; average value vs vehicle control (100%)
Method: (§2) Effect on L-Type and T-Type Ca Channel Expressed in Mammalian Cells (BHK Cells)
as §1, with “which L-type Ca channel or” for “which”, “pulse (10 mV in L-type Ca channel, −20 mV in T-type Ca channel)” for “pulse (−20 mV)”, “mV. Compound (9)” for “mV. Each compound”, “Table 2” for “Table 1”

T-type Ca channel (α1G) [2] = target: T1, T-type Ca channel (α1G); assay: Effect on T-type Ca channel expressed in BHK cells (whole cell patch clamp), Pharmacological Test Example 2; settings: BHK cells expressing T-type Ca channel (α1G), depolarization pulse −20 mV from −80 mV, 5 minutes after application, average value vs vehicle control (100%), read-out: Inhibition (%) of Ca current, T-type
Method: as §2
as §1, with “which L-type Ca channel or” for “which”, “pulse (10 mV in L-type Ca channel, −20 mV in T-type Ca channel)” for “pulse (−20 mV)”, “mV. Compound (9)” for “mV. Each compound”, “Table 2” for “Table 1”

T1 sequence (O43497 whole entry): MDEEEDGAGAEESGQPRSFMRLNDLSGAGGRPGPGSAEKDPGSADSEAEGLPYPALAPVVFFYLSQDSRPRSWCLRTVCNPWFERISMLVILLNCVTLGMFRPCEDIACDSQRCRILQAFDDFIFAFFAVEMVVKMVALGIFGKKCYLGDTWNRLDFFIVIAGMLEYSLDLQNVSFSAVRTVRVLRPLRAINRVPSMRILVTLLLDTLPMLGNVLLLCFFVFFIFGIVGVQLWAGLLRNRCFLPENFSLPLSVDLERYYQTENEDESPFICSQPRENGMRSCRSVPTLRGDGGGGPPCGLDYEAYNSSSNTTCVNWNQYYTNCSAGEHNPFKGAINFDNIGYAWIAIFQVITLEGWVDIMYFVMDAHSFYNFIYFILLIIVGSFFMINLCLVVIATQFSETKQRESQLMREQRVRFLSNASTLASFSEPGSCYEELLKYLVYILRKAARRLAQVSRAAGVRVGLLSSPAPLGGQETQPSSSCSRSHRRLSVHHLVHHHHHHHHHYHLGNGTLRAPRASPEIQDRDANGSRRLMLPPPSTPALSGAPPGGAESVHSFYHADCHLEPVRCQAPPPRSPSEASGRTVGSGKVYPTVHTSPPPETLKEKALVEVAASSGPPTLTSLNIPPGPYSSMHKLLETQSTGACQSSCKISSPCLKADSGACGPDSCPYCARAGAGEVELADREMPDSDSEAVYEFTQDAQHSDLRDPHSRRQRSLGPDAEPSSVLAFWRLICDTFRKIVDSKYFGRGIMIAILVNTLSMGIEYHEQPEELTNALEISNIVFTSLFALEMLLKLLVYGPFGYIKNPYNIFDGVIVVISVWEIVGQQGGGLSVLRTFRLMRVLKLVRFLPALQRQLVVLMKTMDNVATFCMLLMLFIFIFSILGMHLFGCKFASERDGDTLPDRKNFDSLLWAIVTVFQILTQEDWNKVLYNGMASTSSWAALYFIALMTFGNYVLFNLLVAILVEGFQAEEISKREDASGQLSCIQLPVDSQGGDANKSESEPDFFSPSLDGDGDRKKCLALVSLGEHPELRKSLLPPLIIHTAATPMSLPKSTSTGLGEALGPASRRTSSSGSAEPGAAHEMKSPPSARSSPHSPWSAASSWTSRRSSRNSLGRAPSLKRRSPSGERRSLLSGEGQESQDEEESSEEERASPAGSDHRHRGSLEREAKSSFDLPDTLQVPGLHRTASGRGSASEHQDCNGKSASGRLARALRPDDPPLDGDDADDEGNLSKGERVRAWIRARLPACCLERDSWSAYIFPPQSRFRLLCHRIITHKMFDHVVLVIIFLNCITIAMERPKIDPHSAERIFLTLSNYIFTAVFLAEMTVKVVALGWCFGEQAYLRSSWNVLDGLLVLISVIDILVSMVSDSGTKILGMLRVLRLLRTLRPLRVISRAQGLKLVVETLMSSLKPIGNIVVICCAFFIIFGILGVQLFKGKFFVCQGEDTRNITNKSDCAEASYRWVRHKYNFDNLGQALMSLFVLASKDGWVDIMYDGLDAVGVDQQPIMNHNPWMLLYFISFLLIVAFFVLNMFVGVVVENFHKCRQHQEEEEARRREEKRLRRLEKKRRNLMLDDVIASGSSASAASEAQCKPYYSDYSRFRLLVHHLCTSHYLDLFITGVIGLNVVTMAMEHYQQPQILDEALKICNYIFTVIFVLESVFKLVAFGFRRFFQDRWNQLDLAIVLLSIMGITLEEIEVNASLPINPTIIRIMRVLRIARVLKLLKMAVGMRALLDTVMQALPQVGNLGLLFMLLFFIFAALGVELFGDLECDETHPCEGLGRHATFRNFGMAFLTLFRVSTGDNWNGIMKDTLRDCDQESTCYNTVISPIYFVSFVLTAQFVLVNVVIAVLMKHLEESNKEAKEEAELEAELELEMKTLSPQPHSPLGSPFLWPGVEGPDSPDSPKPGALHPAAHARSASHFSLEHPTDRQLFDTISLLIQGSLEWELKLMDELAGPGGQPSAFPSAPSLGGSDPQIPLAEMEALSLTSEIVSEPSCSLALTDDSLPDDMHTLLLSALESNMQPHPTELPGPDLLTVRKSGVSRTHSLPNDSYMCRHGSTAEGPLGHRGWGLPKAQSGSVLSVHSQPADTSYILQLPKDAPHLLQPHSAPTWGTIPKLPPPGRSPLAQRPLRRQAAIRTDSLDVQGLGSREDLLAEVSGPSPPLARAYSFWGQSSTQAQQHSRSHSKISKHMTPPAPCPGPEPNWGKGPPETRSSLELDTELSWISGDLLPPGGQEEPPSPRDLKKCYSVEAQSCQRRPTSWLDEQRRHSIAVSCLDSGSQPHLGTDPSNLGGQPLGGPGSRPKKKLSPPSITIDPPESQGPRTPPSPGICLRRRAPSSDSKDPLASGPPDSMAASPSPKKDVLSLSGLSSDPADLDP

Row | Compound | inhibition at 10 µM (T-type Ca channel (α1G) [1]) [%] | inhibition at 10 µM (T-type Ca channel (α1G) [2]) [%] | Inhibition (%) of Ca current, L-type (L-type Ca channel) [%]
1 | Cc1nc(C)c(P2(=O)OCC(C)(C)CO2)c(-c2cccc([N+](=O)[O-])c2)c1C(=O)OCCN(Cc1ccccc1)c1ccccc1 [Compound (4)] | 23.9 |  | 
2 | Cc1nc(C)c(P2(=O)OCC(C)(C)CO2)c(-c2cccc([N+](=O)[O-])c2)c1C(=O)OCCNc1ccccc1 [Compound (5)] | 53.9 |  | 
3 | Cc1nc(C)c(P2(=O)OCC(C)(C)CO2)c(-c2cccc([N+](=O)[O-])c2)c1C(=O)OCCN1CCN(C(c2ccccc2)c2ccccc2)CC1 [Compound (6)] | 43.6 |  | 

Second part, led by results:

Row | inhibition at 10 µM (T-type Ca channel (α1G) [1]) [%] | inhibition at 10 µM (T-type Ca channel (α1G) [2]) [%] | Compound | Inhibition (%) of Ca current, L-type (L-type Ca channel) [%]
4 | 45.8 |  | COC(=O)c1c(C)nc(C)c(C(=O)OC2CCCN(Cc3ccccc3)C2)c1-c1cccc([N+](=O)[O-])c1 (stereo not shown) [Compound (7)] | 
5 | 30 |  | COC(=O)C1=C(C)N(C)C(C)=C(C(=O)OC2CCCN(Cc3ccccc3)C2)C1c1cccc([N+](=O)[O-])c1 (stereo not shown) [Compound (8)] | 
6 |  | 48.9 | CC1=C(C(=O)OCCN(Cc2ccccc2)c2ccccc2)C(c2cccc([N+](=O)[O-])c2)C(P2(=O)OCC(C)(C)CO2)=C(C)N1CCN1CCOCC1 (stereo not shown) [Compound (9)] | 9.9
